Test results taken from patent US9670514B2, “Method for producing polysaccharide” (SANYO CHEMICAL INDUSTRIES, LTD., priority 2011, dated 2017).
pIC50: −log10 of the molar value.

Key:
chondroitin synthase = target: T1, chondroitin synthase (Pasteurella multocida, UniProt Q9CMP0); test: Inhibitory concentration IC50 against chondroitin synthase; format: biochemical
T1 construct: FLAG; made in house; host or cells: Escherichia coli SURE, as in Preparation 1
Protocol: Hyaluronan synthase aqueous solution (B-1) obtained in Preparation 1 was dissolved to a concentration of 1.5 U/mL in 940 μL of aqueous solution 1 (50 mM phosphate buffer (pH of 7.5, 25° C.) containing 5 mM magnesium chloride and 0.05 mM sodium uridine diphosphate) in a 1.5 mL-tube. The tube was allowed to stand at 40° C. for 20 minutes in a constant temperature water bath. To the tube was added 50 μL of temperature-adjusted (40° C.) substrate solution [1-1] (a solution obtained by dissolving uridine diphosphate-glucuronic acid sodium salt and uridine diphosphate-N-acetylglucosamine both to a concentration of 20 mM in buffer solution B (50 mM phosphate buffer, pH of 7.5, 25° C.)). Thereby, enzyme reaction solution (I-1) was obtained. […] The supernatant (80 μL) was analyzed by HPLC under the following conditions, and the peak areas of hyaluronan were recorded. […]
The inhibitory concentration IC50 was measured in a similar manner as in “Measurement of the inhibitory concentration IC50 against hyaluronan synthase”, except that “chondroitin synthase aqueous solution (B-2) obtained in Preparation 11” was used in place of “hyaluronan synthase aqueous solution (B-1) obtained in Preparation 1”, “substrate solution [1-2] […]
The inhibitory concentration IC50 was also determined in a similar manner, except that the amount of chondroitin synthase aqueous solution (B-2) was changed from 1.5 U/mL to 45 U/mL.

arginine kinase = test: Michaelis constant Km of uridine triphosphate synthesis using arginine kinase; format: biochemical, Toxoplasma gondii; details: uridine diphosphate as substrate, ω-phosphono-L-arginine as phosphate donor
Protocol: Arginine kinase aqueous solution (D4-1-3) was obtained in a similar manner as in Preparation 1, except that a “gene encoding the amino acid sequence of SEQ ID NO: 9 derived from Toxoplasma gondii” was used in place of the “gene encoding the amino acid sequence of SEQ ID NO: 1 derived from Streptococcus equisimilis”.
The tube was allowed to stand at 30° C. for 3 minutes in a constant temperature water bath. To the tube was added 100 μL of temperature-adjusted (30° C.) substrate solution [2-1] (a solution obtained by dissolving sodium uridine diphosphate to a concentration of 10 mM in buffer solution B). Thereby, enzyme reaction solution (IV-2-1) was obtained. A portion (100 μL) of (IV-2-1) was extracted immediately after preparation and at 1-minute intervals. The extracted portions were heated at 100° C. for 2 minutes to stop the enzyme reaction, and centrifuged using a centrifuge (4° C., 12,000×g, 10 min) to precipitate impurities. The supernatant (80 μL) was analyzed by HPLC, and the peak areas of uridine triphosphate were recorded.
A Hanes-Woolf plot was constructed using the calculated initial enzyme reaction velocity v, with the horizontal axis (x-axis) plotting each substrate concentration [S], and the vertical axis (y-axis) plotting the […] of the initial enzyme reaction velocity at each substrate concentration. […]

## O=c1ccn([C@@H]2O[C@H](COP(=O)(O)OP(=O)(O)O)[C@@H](O)[C@H]2O)c(=O)[nH]1 [uridine diphosphate]
Chondroitin synthase
  pIC50: 4.07
Arginine kinase
  Km: 710 µM
